Reference: ChEMBL document CHEMBL1201862, “PubChem BioAssay data set” (2004)
One block for each compound: values may come before it. The source made the active and inactive calls.

Experiments:
Transthyretin = Transthyretin (Homo sapiens, UniProt P02766); assay: Luminescence-based cell-based high throughput dose response assay to identify activators of Transthyretin (TTR) transcription.; assay type: functional
[1] = target: Solute carrier family 12 member 2/member 5 (Homo sapiens, UniProt P55011+Q9H2X9); assay: KCC2 and NKCC1 inhibition by rubidium flux, cell-based, NKCC1 counter-screen (AID 1734); assay type: functional, HEK293
Leucine aminopeptidase = target: T1, Leucine aminopeptidase (Plasmodium falciparum 3D7, UniProt Q8IL11); assay: P. falciparum M17LAP inhibitors, primary screen, biochemical, fluorogenic H-Leu-NHMec substrate, 1536-well (AID 1619); assay type: functional
T1 sequence (Q8IL11 whole entry): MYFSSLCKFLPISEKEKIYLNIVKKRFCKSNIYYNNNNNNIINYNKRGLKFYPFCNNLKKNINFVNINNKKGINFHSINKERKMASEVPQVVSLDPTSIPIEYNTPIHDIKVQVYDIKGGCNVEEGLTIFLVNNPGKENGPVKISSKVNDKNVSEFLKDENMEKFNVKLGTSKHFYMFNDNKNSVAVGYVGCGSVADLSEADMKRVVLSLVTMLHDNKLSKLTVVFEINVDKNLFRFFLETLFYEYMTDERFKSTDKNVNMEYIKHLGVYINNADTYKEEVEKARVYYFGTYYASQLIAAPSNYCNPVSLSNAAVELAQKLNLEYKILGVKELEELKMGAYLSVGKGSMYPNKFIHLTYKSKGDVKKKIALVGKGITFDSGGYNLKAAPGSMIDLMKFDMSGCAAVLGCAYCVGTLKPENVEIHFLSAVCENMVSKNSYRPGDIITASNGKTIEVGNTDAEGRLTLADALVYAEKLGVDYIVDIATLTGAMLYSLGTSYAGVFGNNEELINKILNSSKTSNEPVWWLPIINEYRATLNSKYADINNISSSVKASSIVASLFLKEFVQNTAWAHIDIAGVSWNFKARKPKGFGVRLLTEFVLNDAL

[2] = Dose-response inhibition of insulin secretion in a rat insulinoma line at 5 mM glucose (AID 1117331); assay type: functional, cell-based; conditions: INS-1E
[3] = P. falciparum Dd2 blood-stage growth inhibition, dose response, SYBR Green fluorescence, erythrocytes, dry powder, set 2 (AID 1159574); assay type: functional, cell-based
[4] = Jurkat T cell cytotoxicity, dose response, cytotoxicity control for P. falciparum gametocyte viability project, luminescence (AID 1117277); assay type: functional, cell-based;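 note: potency reflects loss of cellular ATP meaning fewer viable cells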
[5] = P. falciparum late gametocyte killing, dose response, luminescence (AID 1117278); assay type: functional, cell-based;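 note: gametocytes exposed to compound for 24 hours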
NADPH oxidase 1 = NADPH oxidase 1 (Homo sapiens, UniProt Q9Y5S8); assay: Late-stage luminescence-based cell-based dose response assay to identify inhibitors of NADPH oxidase 1 (NOX1): Synthesized analogs 2.; assay type: functional
Ephrin type-A receptor 4 = Ephrin type-A receptor 4 (Mus musculus, UniProt Q03137); assay: inhibitors of EphA4 binding to KYL peptide, primary screen, biochemical, colorimetric, mouse EphA4 (AID 689); assay type: functional
Chain of Ephrin type-A receptor 4 (Q03137 whole entry): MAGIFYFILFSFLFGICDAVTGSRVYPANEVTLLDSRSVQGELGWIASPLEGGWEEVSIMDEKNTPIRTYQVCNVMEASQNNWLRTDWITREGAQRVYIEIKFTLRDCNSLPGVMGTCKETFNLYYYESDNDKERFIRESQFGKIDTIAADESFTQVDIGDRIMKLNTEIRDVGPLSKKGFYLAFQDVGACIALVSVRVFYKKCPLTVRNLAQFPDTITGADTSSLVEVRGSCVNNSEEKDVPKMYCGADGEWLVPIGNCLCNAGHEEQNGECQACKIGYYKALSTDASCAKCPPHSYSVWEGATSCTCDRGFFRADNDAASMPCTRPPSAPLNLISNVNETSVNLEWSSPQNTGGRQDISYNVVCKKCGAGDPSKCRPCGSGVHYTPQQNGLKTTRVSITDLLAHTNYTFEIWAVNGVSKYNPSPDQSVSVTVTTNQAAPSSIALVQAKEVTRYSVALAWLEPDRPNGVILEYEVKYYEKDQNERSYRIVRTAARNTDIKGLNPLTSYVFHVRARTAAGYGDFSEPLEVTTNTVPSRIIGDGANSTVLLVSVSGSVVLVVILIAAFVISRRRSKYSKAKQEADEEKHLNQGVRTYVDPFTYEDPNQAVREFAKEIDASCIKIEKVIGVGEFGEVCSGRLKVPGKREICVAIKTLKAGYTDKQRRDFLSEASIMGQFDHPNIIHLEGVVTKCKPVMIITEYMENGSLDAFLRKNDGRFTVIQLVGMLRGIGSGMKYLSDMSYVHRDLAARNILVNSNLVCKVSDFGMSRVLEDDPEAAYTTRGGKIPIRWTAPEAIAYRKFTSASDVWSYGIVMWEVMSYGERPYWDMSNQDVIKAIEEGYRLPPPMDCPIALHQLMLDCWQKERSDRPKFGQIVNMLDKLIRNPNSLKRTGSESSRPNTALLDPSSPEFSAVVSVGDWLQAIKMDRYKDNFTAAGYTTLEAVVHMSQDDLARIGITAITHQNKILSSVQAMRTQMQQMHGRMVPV

Chain of NADPH oxidase 1 (Q9Y5S8 whole entry): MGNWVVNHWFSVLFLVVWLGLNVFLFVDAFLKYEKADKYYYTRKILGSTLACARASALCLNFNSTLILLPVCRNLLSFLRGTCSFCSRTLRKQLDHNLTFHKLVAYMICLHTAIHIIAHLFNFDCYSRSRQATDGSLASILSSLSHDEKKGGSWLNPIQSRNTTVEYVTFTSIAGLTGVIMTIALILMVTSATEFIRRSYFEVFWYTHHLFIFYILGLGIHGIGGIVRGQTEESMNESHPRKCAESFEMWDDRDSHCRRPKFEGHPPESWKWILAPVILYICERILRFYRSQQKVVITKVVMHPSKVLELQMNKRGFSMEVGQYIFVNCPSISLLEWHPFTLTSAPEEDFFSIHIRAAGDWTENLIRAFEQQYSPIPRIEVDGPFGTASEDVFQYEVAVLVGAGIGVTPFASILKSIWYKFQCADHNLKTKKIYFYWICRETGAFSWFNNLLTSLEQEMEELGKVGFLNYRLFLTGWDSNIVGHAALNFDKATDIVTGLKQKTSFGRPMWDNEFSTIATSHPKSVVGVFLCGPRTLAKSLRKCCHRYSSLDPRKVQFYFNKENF

Compound: CN1CCN2c3ccccc3Cc3ccccc3C2C1 (centres undefined) [MIANSERIN]
- IC50 [2]: > 11.1 µM (inactive)

Compound: COc1ccc(S(=O)(=O)N(C)C[C@H]2OCc3ccccc3-c3c(n(C)c4ccccc34)C(=O)N([C@@H](C)CO)C[C@H]2C)cc1
- AC50 [3]: 5.13 µM (active)

Compound: COc1cc(S(=O)(=O)NC2CCCCC2)c(C)cc1C
- IC50 [4]: > 83.3 µM (inactive)
- IC50 [5]: > 109 µM (inactive)

The remaining lines, values ahead:

- EC50 (Transthyretin): > 167 µM (inactive)
Compound: Cc1nn(C)c(C(=O)N2CCc3ccccc32)c1Br

- IC50 [1]: 640 nM (active)
- IC50 (Leucine aminopeptidase): 19.8 µM (active)
Compound: Cc1ccc(Nc2nnc(SCC(=O)c3cc4ccccc4o3)s2)cc1C

- IC50 (NADPH oxidase 1): 7.05 µM (active)
Compound: CN1c2ccc(N=[N+]=[N-])cc2Sc2cc(N=[N+]=[N-])ccc21

- IC50 (Ephrin type-A receptor 4): 18.2 µM (active)
Compound: CCn1c2ccc(Cl)cc2c2nc3ccccc3nc21
